From patent US11780901B2, “Analogues of parathyroid hormone (1-34) that function as agonists of the parathyroid hormone receptor-1 and display modified activity profiles” (Wisconsin Alumni Research Foundation, priority 2013, dated 2023) come the findings set out here.

One test has as its target T1, PTHR1 (Homo sapiens, UniProt Q03431).
T1 sequence (Q03431 27-593): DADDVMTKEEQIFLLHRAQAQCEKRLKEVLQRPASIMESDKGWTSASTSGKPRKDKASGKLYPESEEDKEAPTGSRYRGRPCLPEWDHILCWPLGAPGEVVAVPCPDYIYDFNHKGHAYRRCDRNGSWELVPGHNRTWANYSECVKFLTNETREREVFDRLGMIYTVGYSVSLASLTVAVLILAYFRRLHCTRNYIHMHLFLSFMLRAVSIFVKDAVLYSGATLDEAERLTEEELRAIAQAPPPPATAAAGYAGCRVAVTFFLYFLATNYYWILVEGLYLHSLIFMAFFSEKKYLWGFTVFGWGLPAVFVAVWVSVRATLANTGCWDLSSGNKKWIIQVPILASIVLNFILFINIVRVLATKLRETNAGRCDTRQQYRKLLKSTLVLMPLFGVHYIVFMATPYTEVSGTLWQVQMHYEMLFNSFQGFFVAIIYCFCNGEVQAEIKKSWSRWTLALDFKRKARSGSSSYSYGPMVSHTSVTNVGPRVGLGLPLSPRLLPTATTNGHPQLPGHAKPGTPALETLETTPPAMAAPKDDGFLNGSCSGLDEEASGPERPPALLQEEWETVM
The test can be described thus: PTHR1 activation, cAMP production (GloSensor) in HEK293 cells. The test is classed as cell-based. The arrangement: expressed in transfected cells. Particulars: for PTHR1 Activation: Derivative EC50/PTH EC50: normalized to EC50 of PTH(1-34)-NH2 ([…]), cAMP production. From the text:
The assays employ HEK-293 cells that have been engineered to express the appropriate receptor. GloSensor-based detection of cAMP provides a read-out of receptor activation.
For PTHR1 activation and all the binding data, data represent mean±s.e.m from three independent measurements; For PTHR2 activation, data represent mean±s.e.m from four independent measurements. Curves were fit to the data using a four-parameter sigmoidal dose-response equation.
For cAMP dose-response assays, monolayers of confluent HEK 293 cells were pre-incubated with buffer containing d-luciferin (0.5 mM) in 96 well plates at room temperature until a stable baseline level of luminescence was established (30 min). Varying concentrations of agonist were then added, and the time course of luminescence response was recorded using a Perkin Elmer plate reader following α/β-peptide addition.
For orientation: Cyclic AMP is a second messenger, typically raised through Gs and lowered through Gi signalling.

The target in the next test is PTHR2 (Homo sapiens, UniProt P49190). In words: PTHR2 activation, cAMP production (GloSensor) in HEK293 cells. The test is classed as cell-based. The arrangement: expressed in transfected cells; key to PTHR2 Activation: Derivative EC50/PTH EC50: *** denotes poor tolerance of β amino acid for PTHR2 activation. Particulars: for EC50: HEK-293 cells, GloSensor cAMP, read-out: EC50 (nM) of PTHR2 Activation; for PTHR2 Activation: Derivative EC50/PTH EC50: normalized to EC50 of PTH(1-34)-NH2 ([…] printed), cAMP production. From the text: The assays employ HEK-293 cells that have been engineered to express the appropriate receptor. GloSensor-based detection of cAMP provides a read-out of receptor activation. […] (Carter, P. H. et al. Actions of the Small Molecule Ligands SW106 and AH-3960 on the Type-1 Parathyroid Hormone Receptor. Molecular Endocrinology 29, 307-321 (2015).)
FIGS. 10A and 10B depict dose-response curves of PTHR1 activation (FIG. 10A) and PTHR2 activation (FIG. 10B) in HEK293 cells stably expressing PTHR1 or PTHR2. For PTHR1 activation and all the binding data, data represent mean±s.e.m from three independent measurements; For PTHR2 activation, data represent mean±s.e.m from four independent measurements. Curves were fit to the data using a four-parameter sigmoidal dose-response equation.

Where [1] appears, read: HEK-293 cells, GloSensor cAMP, read-out: EC50 (nM) of PTHR1 Activation.

Read-outs that look alike come from different tables or passages of the source. Starred links: 1 amine or outer side, 2 acyl side, 3 side chain; linkers in the order of their positions; H or OH if unused. Non-standard residues stand in square brackets, D forms with d. Residues, ends and D or L forms follow the SMILES beside them. *: point of attachment. X10 = NC(=O)CC[C@H](CN[*:1])C(=O)[*:2]; X6 = O=C(O)CC[C@H](CN[*:1])C(=O)[*:2]; X11 = NC[C@H](CO)C(=O)*; X8 = NC[C@@H](CO)C(=O)* Bounds are passed on as bounds.

Chain of PTHR2 (P49190 25-550): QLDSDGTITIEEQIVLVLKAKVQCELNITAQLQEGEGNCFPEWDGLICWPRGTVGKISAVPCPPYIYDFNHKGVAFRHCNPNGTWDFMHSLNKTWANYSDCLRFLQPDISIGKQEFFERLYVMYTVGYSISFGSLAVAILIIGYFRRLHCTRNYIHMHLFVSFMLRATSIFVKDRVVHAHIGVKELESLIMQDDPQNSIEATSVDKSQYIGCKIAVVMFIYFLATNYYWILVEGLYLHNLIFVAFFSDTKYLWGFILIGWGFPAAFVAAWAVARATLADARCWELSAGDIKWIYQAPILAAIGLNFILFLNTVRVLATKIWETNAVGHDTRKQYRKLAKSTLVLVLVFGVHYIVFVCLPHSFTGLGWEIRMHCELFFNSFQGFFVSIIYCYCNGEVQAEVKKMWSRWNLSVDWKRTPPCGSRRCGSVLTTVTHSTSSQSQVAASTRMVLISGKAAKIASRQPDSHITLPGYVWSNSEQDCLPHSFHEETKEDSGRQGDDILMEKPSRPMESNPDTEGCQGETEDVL

The term EC50 denotes the concentration at which the effect is half-maximal. As to `CC[C@H](C)[C@H](NC(=O)[C@H](CCC(=O)O)NC(=O)[C@H](CO)NC(=O)[C@@H](NC(=O)[C@@H](CN)CO)C(C)C)C(=O)N[C@@H](CCC(N)=O)C(=O)N[C@@H](CC(C)C)C(=O)N[C@@H](CCSC)C(=O)N[C@@H](Cc1c[nH]cn1)C(=O)N[C@@H](CC(N)=O)C(=O)N[C@@H](CC(C)C)C(=O)NCC(=O)N[C@@H](CCCCN)C(=O)N[C@@H](Cc1c[nH]cn1)C(=O)N[C@@H](CC(C)C)C(=O)N[C@@H](CC(N)=O)C(=O)N[C@@H](CO)C(=O)N[C@@H](CCSC)C(=O)N[C@@H](CCC(=O)O)C(=O)N[C@@H](CCCNC(=N)N)C(=O)N[C@H](C(=O)N[C@@H](CCC(=O)O)C(=O)N[C@@H](Cc1c[nH]c2ccccc12)C(=O)N[C@@H](CC(C)C)C(=O)N[C@@H](CCCNC(=N)N)C(=O)N[C@@H](CCCCN)C(=O)N[C@@H](CCCCN)C(=O)N[C@@H](CC(C)C)C(=O)N[C@@H](CCC(N)=O)C(=O)N[C@@H](CC(=O)O)C(=O)N[C@H](C(=O)N[C@@H](Cc1c[nH]cn1)C(=O)N[C@@H](CC(N)=O)C(=O)N[C@@H](Cc1ccccc1)C(N)=O)C(C)C)C(C)C` [SEQ. ID. NO: 22] (X8-VSEIQLMHNLGKHLNSMERVEWLRKKLQDVHNF-NH2), the EC50 at PTHR1 (setting [1]) turned out to be 0.35 ± 0.06 nM; at PTHR2 it was 5.97 ± 1.21 nM.
Regarding `CC[C@H](C)[C@H](NC(=O)[C@H](CCC(=O)O)CNC(=O)[C@H](CO)NC(=O)[C@@H](NC(=O)[C@@H](N)CO)C(C)C)C(=O)N[C@@H](CCC(N)=O)C(=O)N[C@@H](CC(C)C)C(=O)N[C@@H](CCSC)C(=O)N[C@@H](Cc1c[nH]cn1)C(=O)N[C@@H](CC(N)=O)C(=O)N[C@@H](CC(C)C)C(=O)NCC(=O)N[C@@H](CCCCN)C(=O)N[C@@H](Cc1c[nH]cn1)C(=O)N[C@@H](CC(C)C)C(=O)N[C@@H](CC(N)=O)C(=O)N[C@@H](CO)C(=O)N[C@@H](CCSC)C(=O)N[C@@H](CCC(=O)O)C(=O)N[C@@H](CCCNC(=N)N)C(=O)N[C@H](C(=O)N[C@@H](CCC(=O)O)C(=O)N[C@@H](Cc1c[nH]c2ccccc12)C(=O)N[C@@H](CC(C)C)C(=O)N[C@@H](CCCNC(=N)N)C(=O)N[C@@H](CCCCN)C(=O)N[C@@H](CCCCN)C(=O)N[C@@H](CC(C)C)C(=O)N[C@@H](CCC(N)=O)C(=O)N[C@@H](CC(=O)O)C(=O)N[C@H](C(=O)N[C@@H](Cc1c[nH]cn1)C(=O)N[C@@H](CC(N)=O)C(=O)N[C@@H](Cc1ccccc1)C(N)=O)C(C)C)C(C)C` [SEQ. ID. NO: 25] (H-SVS[X6]IQLMHNLGKHLNSMERVEWLRKKLQDVHNF-NH2; N-terminus assumed), the EC50 on PTHR1 (setting [1]) is 22.9 ± 1.89 nM. Further, the “PTHR1 Activation: Derivative EC50/PTH EC50” value at PTHR1 came to 60.26. In addition, on PTHR2, the EC50 was over 1000 nM and the “PTHR2 Activation: Derivative EC50/PTH EC50” value was “***”.
As for `CC[C@H](C)[C@H](NC(=O)[C@H](CCC(=O)O)NC(=O)[C@H](CO)NC(=O)[C@@H](NC(=O)[C@@H](N)CO)C(C)C)C(=O)NC[C@@H](CCC(N)=O)C(=O)N[C@@H](CC(C)C)C(=O)N[C@@H](CCSC)C(=O)N[C@@H](Cc1c[nH]cn1)C(=O)N[C@@H](CC(N)=O)C(=O)N[C@@H](CC(C)C)C(=O)NCC(=O)N[C@@H](CCCCN)C(=O)N[C@@H](Cc1c[nH]cn1)C(=O)N[C@@H](CC(C)C)C(=O)N[C@@H](CC(N)=O)C(=O)N[C@@H](CO)C(=O)N[C@@H](CCSC)C(=O)N[C@@H](CCC(=O)O)C(=O)N[C@@H](CCCNC(=N)N)C(=O)N[C@H](C(=O)N[C@@H](CCC(=O)O)C(=O)N[C@@H](Cc1c[nH]c2ccccc12)C(=O)N[C@@H](CC(C)C)C(=O)N[C@@H](CCCNC(=N)N)C(=O)N[C@@H](CCCCN)C(=O)N[C@@H](CCCCN)C(=O)N[C@@H](CC(C)C)C(=O)N[C@@H](CCC(N)=O)C(=O)N[C@@H](CC(=O)O)C(=O)N[C@H](C(=O)N[C@@H](Cc1c[nH]cn1)C(=O)N[C@@H](CC(N)=O)C(=O)N[C@@H](Cc1ccccc1)C(N)=O)C(C)C)C(C)C` [SEQ. ID. NO: 27] (H-SVSEI[X10]LMHNLGKHLNSMERVEWLRKKLQDVHNF-NH2; N-terminus assumed), on PTHR1 (setting [1]), the EC50 came out at 7.83 ± 0.4 nM. Besides, the “PTHR1 Activation: Derivative EC50/PTH EC50” value on PTHR1 is 20.61. Further, on PTHR2, the EC50 turned out to be 51.9 ± 8.82 nM and the “PTHR2 Activation: Derivative EC50/PTH EC50” value is recorded as 59.70.
`CC[C@H](C)[C@H](NC(=O)[C@H](CCC(=O)O)NC(=O)[C@H](CO)NC(=O)[C@@H](NC(=O)[C@H](CN)CO)C(C)C)C(=O)N[C@@H](CCC(N)=O)C(=O)N[C@@H](CC(C)C)C(=O)N[C@@H](CCSC)C(=O)N[C@@H](Cc1c[nH]cn1)C(=O)N[C@@H](CC(N)=O)C(=O)N[C@@H](CC(C)C)C(=O)NCC(=O)N[C@@H](CCCCN)C(=O)N[C@@H](Cc1c[nH]cn1)C(=O)N[C@@H](CC(C)C)C(=O)N[C@@H](CC(N)=O)C(=O)N[C@@H](CO)C(=O)N[C@@H](CCSC)C(=O)N[C@@H](CCC(=O)O)C(=O)N[C@@H](CCCNC(=N)N)C(=O)N[C@H](C(=O)N[C@@H](CCC(=O)O)C(=O)N[C@@H](Cc1c[nH]c2ccccc12)C(=O)N[C@@H](CC(C)C)C(=O)N[C@@H](CCCNC(=N)N)C(=O)N[C@@H](CCCCN)C(=O)N[C@@H](CCCCN)C(=O)N[C@@H](CC(C)C)C(=O)N[C@@H](CCC(N)=O)C(=O)N[C@@H](CC(=O)O)C(=O)N[C@H](C(=O)N[C@@H](Cc1c[nH]cn1)C(=O)N[C@@H](CC(N)=O)C(=O)N[C@@H](Cc1ccccc1)C(N)=O)C(C)C)C(C)C` [SEQ. ID. NO: 30] (X11-VSEIQLMHNLGKHLNSMERVEWLRKKLQDVHNF-NH2): the EC50 on PTHR1 (Table 8, hPTHR1, read-out: PTHR1 EC50) turned out to be 1.55 ± 0.3 nM.
As for `CC[C@H](C)[C@H](NC(=O)C[C@H](CCC(=O)O)NC(=O)[C@H](CO)NC(=O)[C@@H](NC(=O)[C@@H](N)CO)C(C)C)C(=O)N[C@@H](CCC(N)=O)C(=O)N[C@@H](CC(C)C)C(=O)N[C@@H](CCSC)C(=O)N[C@@H](Cc1c[nH]cn1)C(=O)N[C@@H](CC(N)=O)C(=O)N[C@@H](CC(C)C)C(=O)NCC(=O)N[C@@H](CCCCN)C(=O)N[C@@H](Cc1c[nH]cn1)C(=O)N[C@@H](CC(C)C)C(=O)N[C@@H](CC(N)=O)C(=O)N[C@@H](CO)C(=O)N[C@@H](CCSC)C(=O)N[C@@H](CCC(=O)O)C(=O)N[C@@H](CCCNC(=N)N)C(=O)N[C@H](C(=O)N[C@@H](CCC(=O)O)C(=O)N[C@@H](Cc1c[nH]c2ccccc12)C(=O)N[C@@H](CC(C)C)C(=O)N[C@@H](CCCNC(=N)N)C(=O)N[C@@H](CCCCN)C(=O)N[C@@H](CCCCN)C(=O)N[C@@H](CC(C)C)C(=O)N[C@@H](CCC(N)=O)C(=O)N[C@@H](CC(=O)O)C(=O)N[C@H](C(=O)N[C@@H](Cc1c[nH]cn1)C(=O)N[C@@H](CC(N)=O)C(=O)N[C@@H](Cc1ccccc1)C(N)=O)C(C)C)C(C)C` [SEQ. ID. NO: 41], on PTHR2, the EC50 amounted to 60.1 ± 9.82 nM.
Regarding `CC[C@H](C)[C@@H](CC(=O)N[C@@H](CCC(N)=O)C(=O)N[C@@H](CC(C)C)C(=O)N[C@@H](CCSC)C(=O)N[C@@H](Cc1cnc[nH]1)C(=O)N[C@@H](CC(N)=O)C(=O)N[C@@H](CC(C)C)C(=O)NCC(=O)N[C@@H](CCCCN)C(=O)N[C@@H](Cc1cnc[nH]1)C(=O)N[C@@H](CC(C)C)C(=O)N[C@@H](CC(N)=O)C(=O)N[C@@H](CO)C(=O)N[C@@H](CCSC)C(=O)N[C@@H](CCC(=O)O)C(=O)N[C@@H](CCCNC(=N)N)C(=O)N[C@H](C(=O)N[C@@H](CCC(=O)O)C(=O)N[C@@H](Cc1c[nH]c2ccccc12)C(=O)N[C@@H](CC(C)C)C(=O)N[C@@H](CCCNC(=N)N)C(=O)N[C@@H](CCCCN)C(=O)N[C@@H](CCCCN)C(=O)N[C@@H](CC(C)C)C(=O)N[C@@H](CCC(N)=O)C(=O)N[C@@H](CC(=O)O)C(=O)N[C@H](C(=O)N[C@@H](Cc1cnc[nH]1)C(=O)N[C@@H](CC(N)=O)C(=O)N[C@@H](Cc1ccccc1)C(N)=O)C(C)C)C(C)C)NC(=O)[C@H](CCC(=O)O)NC(=O)[C@H](CO)NC(=O)[C@@H](NC(=O)[C@@H](N)CO)C(C)C` [SEQ. ID. NO: 42], the EC50 at PTHR1 (setting [1]) is 3.4 ± 1.22 nM.
